Reference: publication PMC7616682 (Journal of biological inorganic chemistry : JBIC : a …, 2024)
Values after ≈ are worked out from the molar mass of the structure shown. Read-outs that look alike come from different tables or passages of the source.

Tests used:
[1] = tested on: Escherichia coli K12 ATCC 10798; test: Rapid screen broth microdilution assay; assay type: cell-based; conditions: rapid screen without replicates, 24 h, read-out: MIC E. coli (Gram negative)
Protocol: (§1) Antibacterial activity assay
(§2) Rapid screen broth microdilution assay
(§3) 5 × 125 mL Erlenmeyer flasks, each filled with 12.5 mL Mueller Hinton broth II (MHBII), were inoculated with Klebsiella pneumoniae ATCC 13883, Acinetobacter baumanii ATCC 17978, Psuedomonas aeruginosa ATCC BAA-47, Staphylococcus aureus […]
(§4) with 12.5 mL BHI broth was inoculated with Enterococcus faecium ATCC 19434. The cultures were incubated at 37 °C with shaking at 180 rpm for 16 h. The suspensions were diluted 100-fold with the requisite broth (E. faecium: 4-fold) and the resultant suspensions incubated for a further 3 h at 37 °C with shaking. […]
(§5) of 0.8–1.2 after 3 h. Stock solutions of the title compounds were prepared in the requisite broth from 100 mM stocks in DMSO with the exceptions of carbenicillin, which was from a 100 mM stock in water and ciprofloxacin from a 10 mM stock in DMSO.
(§6) 6 × 96 well plates were primed with a concentration gradient of the analytes from 200 to 3.13 µM, carbenicillin from 200 to 3.13 µM and ciprofloxacin from 10 to 0.16 µM. The cells were diluted 100-fold to an OD600 of 0.01. All plates were then inoculated with 50 μL per well bacterial culture in the requisite broth to 100 μL per well. Plates were then incubated at 37 °C for 24 h before reading OD600 on a BMG Clariostar platereader. […]

S. aureus NTCC 12973 = test: MIC broth microdilution assay; assay type: cell-based, Staphylococcus aureus; conditions: 24 h, read-out: MIC S. aureus (Gram positive)
Protocol: (§7) Antibacterial activity assay […]
(§8) MIC broth microdilution assay
(§9) 3 × 125 mL Erlenmeyer flasks, each filled with 12.5 mL MHBII, were inoculated with three different colonies of S. aureus NTCC 12973. 3 × 125 mL Erlenmeyer flasks, each filled with 12.5 mL BHI broth, were inoculated with three different colonies of E. faecium ATCC 19434. The cultures were incubated at 37 °C with shaking at 180 rpm for 16 h.
(§10) OD600 of ~2.5. The suspensions of S. aureus cultures were diluted 100-fold with MHBII while the E. faecium cultures were diluted 4-fold. The resultant suspensions were incubated for a further 3 h at 37 °C with shaking. […]
(§11) after 3 h. Stock solutions of the title compounds were prepared in the requisite broth from 100 mM stocks in DMSO with the exception of carbenicillin, which was from a 100 mM stock in water and vancomycin from a 10 mM stock in DMSO. 15 × 96 well plates were primed with concentration gradients of the analytes and carbenicillin as shown in Figure S60 for S. aureus. 15 × 96 well plates were primed with the concentration […]
(§12) μL per well of the relevant bacterial culture in the requisite broth to 100 μL per well.
Plates were then incubated at 37 °C for 24 h before reading OD600 on a BMG Clariostar […]
Figure S50: Dose response profiles of the title compounds against S. aureus.
(§13) (1 picture or pasted object on this page, not shown here)

[2] = tested on: Psuedomonas aeruginosa ATCC BAA-47; test: Rapid screen broth microdilution assay; assay type: cell-based, Pseudomonas aeruginosa; conditions: rapid screen without replicates, 24 h, read-out: MIC P. aeruginosa (Gram negative)
Protocol: as §1, §2, §3, §4, §5, §6

[3] = tested on: Klebsiella pneumoniae ATCC 13883; test: Rapid screen broth microdilution assay; assay type: cell-based; conditions: rapid screen without replicates, 24 h, read-out: MIC K. pnuemoniae (Gram negative)
Protocol: as §1, §2, §3, §4, §5, §6

[4] = tested on: Acinetobacter baumanii ATCC 17978; test: Rapid screen broth microdilution assay; assay type: cell-based, Acinetobacter baumannii; conditions: rapid screen without replicates, 24 h, read-out: MIC A. baumannii (Gram negative)
Protocol: as §1, §2, §3, §4, §5, §6

[5] = LogP by shake-flask method (n-octanol/phosphate buffer)
Protocol: using the "shake-flask" method.[6],[7] In short, phosphate buffer (50 mM, pH 7.4) was saturated with n-octanol by shaking a 1:1 mixture of both solution on a laboratory shaker for 72 h, after which the phases were separated. Stock solutions of each complex were then prepared in dimethylsulfoxide at a concentration of 10 mM. […]
(§14) solution with a concentration of 100 µM. From this solution, 1000 µL were transferred into an Eppendorf tube and mixed with 1000 µL of n-octanol. After shaking for 15 min and centrifugation (5 min, 6000 rpm), the two phases were carefully separated, and the contact layer discarded. Then, the absorbance of each phase was recorded with an Agilent 8453 UV/Vis spectrometer.
as §14, with “2 mL solution with” for “solution with”, “1000 µL phosphate buffer. After shaking” for “1000 µL of n-octanol. After shaking”, “rpm), the phases were” for “rpm), the two phases were”

avidin = molecular target: T1, avidin (Gallus gallus, UniProt P02701); test: HABA/avidin assay; assay type: binding; conditions: titration of HABA/avidin mixture, absorbance at 500 nm
T1 construct: purchased SIGMA-ALDRICH A9275
T1 sequence (P02701 25-152): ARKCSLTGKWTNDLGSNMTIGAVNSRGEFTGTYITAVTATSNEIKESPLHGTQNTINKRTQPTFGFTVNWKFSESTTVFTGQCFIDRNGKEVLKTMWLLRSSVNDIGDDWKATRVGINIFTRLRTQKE
Protocol: properties towards avidin using the HABA assay.[8] A mixture of avidin (6.8 μM, SIGMA-ALDRICH: A9275) and 4'-hydroxyazobenzene-2-carboxylic acid (HABA, 0.3 mM, SIGMA-ALDRICH: H5126) was dissolved in 50 mM sodium phosphate buffer (20 mL, pH 7.4) and allowed to equilibrate for 24 h at 4 °C. Stock solutions of each compound were prepared in dimethyl sulfoxide at a concentration of 1.1 mM. The […]
to the prepared avidin/HABA mixture (1 mL) at room temperature at 5–10 min intervals […]
absorbance then recorded with an Agilent 8453 UV/Vis spectrometer. The formation of the adduct was indicated by a decrease in the absorbance at 500 nm due to the displacement of HABA from the avidin. By plotting -ΔA500 nm vs. the molar concentration ratio c(compound):c(avidin), the binding stoichiometry of the compound to avidin was determined.

[6] = tested on: BEAS2B (non-cancer lung) cells; test: Cell viability (DAPI nuclei count); assay type: cell-based, human; conditions: 48 h
Protocol: (§15) To determine the relative viability, after incubation cells were fixed and stained with DAPI and the number of nuclei per well determined using a CeligoTM Image Cytometer (Figure S52 to S60). […] page 43: Cell viability studies Compound cytotoxicity was tested simultaneously on five representative cell lines […] All cells were cultured in DMEM Glutamax without pyruvate with 10% fetal bovine serum and 1% penicillin/streptomycin (Gibco). Cells were incubated with the compound for 24 or 48 h […] The tested concentration range for each compound was […] The required […] Greiner CELLSTAR® microplates) using the Echo 550 Acoustic Liquid Handler and wells were back-filled with DMSO when required to keep a final DMSO concentration […] Next, 50 μL of cell solution was added to the compound-containing wells using the Integra® […] Bulk dispenser. Cell solutions were prepared to get 5000 […] cells per well for hTERT RPE-1, and 5000 (24 h)/2500 (48 h) cells per well for BEAS- […] After incubation, cells were fixed with 4% PFA (Merck, […]), permeabilized with […] DAPI (Merck, 10236276001). Viable cells were counted using 377 nm excitation and 447 nm emission filters on the CeligoTM Image Cytometer. The number of nuclei per well was determined using the Direct Cell Count analysis from the CeligoPro Sofware […] All conditions were performed in triplicate. Staurosporine (Cambridge Bioscience, s7600) was used as a positive control and DMSO only as a negative control. The percentage of cell viability was normalized to the DMSO-only control and […] logistic curve with the scipy.optimize.curve_fit function. S43

[7] = tested on: RPE1 (retinal pigment epithelial cells); test: Cell viability (DAPI nuclei count); assay type: cell-based, human; conditions: 48 h
Protocol: as §15

[8] = tested on: HaCat (non-cancer skin) cells; test: Cell viability (DAPI nuclei count); assay type: cell-based, human; conditions: 48 h
Protocol: as §15

[9] = tested on: HeLa (cervical cancer) cells; test: Cell viability (DAPI nuclei count); assay type: cell-based, human; conditions: 48 h
Protocol: as §15

[10] = tested on: HCT116 (colorectal cancer) cells; test: Cell viability (DAPI nuclei count); assay type: cell-based, human; conditions: 48 h
Protocol: as §15

E. faecium ATCC 19434 = test: MIC broth microdilution assay; assay type: cell-based, Enterococcus faecium; conditions: three colonies, 24 h; for MIC: read-out: MIC E. faecium (Gram positive)
Protocol: as §7, §8, §9, §10, §11, §12

[11] = tested on: BEASB2, HaCat, RPE1, HCT116 and HeLa cell lines; test: Cell viability, summary over all cell lines studied; assay type: cell-based, human; conditions: summary of Table 3, 48 h; for IC50: read-out: IC50 values, range over all cell lines studied
Protocol: as §15

streptavidin = streptavidin (Streptomyces avidinii, UniProt P22629); test: Isothermal titration calorimetry (ITC) with streptavidin; assay type: binding; conditions: 25 °C, 10 mM HEPES + 2% DMSO, read-out: dissociation constant (Kd) to streptavidin
Sequence of streptavidin (P22629 25-183, species assumed): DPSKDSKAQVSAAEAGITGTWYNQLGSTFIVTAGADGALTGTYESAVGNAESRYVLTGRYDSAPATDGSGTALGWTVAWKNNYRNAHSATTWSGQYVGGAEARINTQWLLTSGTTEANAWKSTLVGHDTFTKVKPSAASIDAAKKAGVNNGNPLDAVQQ
Protocol: Isothermal titration calorimetry
Streptavidin (20 µM in 10 mM HEPES plus 2% DMSO) was titrated stepwise with 2 uL injections of the compound (200 µM in 10 mM HEPES + 2% DMSO) at 25 °C, using a Malvern MicroCal PEAQ-ITC. Raw thermograms (top panels) and the binding isotherm from the integrated thermogram (bottom panels) were fit using the One Set of Sites model in the MicroCal PEAQ-ITC analysis software. Circles indicate the integrated heat, and the curve represents the best fit.
Figure S46: Isothermal titration calorimetry measurements of 5.
as §13

| Molecule | LogP ([5]; pH 7.4) | avidin binding in HABA assay (result in words) (avidin) | IC50 [6] [µM] | IC50 [7] [µM] | IC50 [8] [µM] | IC50 [9] [µM] | IC50 [10] [µM] | MIC [2] [µM] | MIC E. faecium (Gram positive) (E. faecium ATCC 19434) [µM] | MIC [3] [µM] | MIC [1] [µM] | IC50 [11] [µM] | MIC (S. aureus NTCC 12973; three colonies) [µM] | MIC [4] [µM] | MIC (E. faecium ATCC 19434) [µM] | other results |
| --- | --- | --- | --- | --- | --- | --- | --- | --- | --- | --- | --- | --- | --- | --- | --- | --- |
| CC1(C)S[C@@H]2[C@H](NC(=O)C(C(=O)O)c3ccccc3)C(=O)N2[C@H]1C(=O)O (stereo partly drawn) [Carbenicillin, reference compound] | – | – | – | – | – | – | – | – | – | – | – | – | – | – | – | MIC ([1]; Escherichia coli, ATCC10798): 12.5 µM (≈ 4.73 µg/mL); MIC (S. aureus NTCC 12973; Staphylococcus aureus, NTCC12973, three colonies): 12.5 µM (≈ 4.73 µg/mL) |
| O=C(O)c1cn(C2CC2)c2cc(N3CCNCC3)c(F)cc2c1=O [Ciprofloxacin, reference compound] | – | – | – | – | – | – | – | – | – | – | – | – | – | – | – | MIC ([2]; Pseudomonas aeruginosa, ATCCBAA47): 100 µM (≈ 33.1 µg/mL); MIC ([3]; Klebsiella pneumoniae, ATCC13883): < 0.16 µM; MIC ([4]; Acinetobacter baumannii, ATCC17978): 0.31 µM (≈ 0.103 µg/mL) |
| CC(=O)c1n[n]([Au][PH](c2ccccc2)(c2ccccc2)c2ccccc2)nc1-c1ccccc1 [Compound 11, [Au(triazolatoC6H5,COCH3)(PPh3)]] | highly lipophilic^a | non-specific protein binding | 2.5 | 2.7 | 6.1 | 3.5 | 5.5 | >200 | 0.625 to 5 | >200 | >200 | 2 to 8 | 2.5 | 100 | – | – |
| COC(=O)c1n[n]([Pt][c]2c(-c3ccccn3)cccc2-c2ccccn2)nc1C(=O)OC [Compound 13] | highly lipophilic^a | non-specific protein binding | – | > 50 | > 50 | > 50 | > 50 | >200 | – | >200 | >200 | – | 200 | >200 | >200 | IC50 values, range over all cell lines studied [11]: did not show any biological activity |
| O=C1N[C@H]2[C@H](CS[C@H]2CCCCC(=O)c2n[n]([Pt][c]3c(-c4ccccn4)cccc3-c3ccccn3)nc2-c2ccccc2)N1 [Compound 14, [Pt(triazolatoC6H5,biotin)(dpb)]] | – | – | 6.7 | 7.4 | 10.2 | 8.2 | 9.4 | >200 | 5 to 10 | >200 | >200 | – | 12.5 | >200 | – | LogP ([5]; shake-flask method, n-octanol/phosphate buffer 50 mM pH 7.4): highly lipophilic^a |
| COC(=O)c1n[n]([Ir+][c]2ccccc2-c2ccccn2)nc1C(=O)OC.F[P-](F)(F)(F)(F)F.c1ccc(-c2cccc(-c3ccccn3)n2)nc1 [Compound 17] | -1.02 | non-specific protein binding | – | 35 | > 50 | > 50 | > 50 | >200 | – | >200 | >200 | > 35 | >200 | >200 | >200 | – |
| [Au(triazolatoC6H5,biotin)(PPh3)] [Compound 12] | – | – | 2.7 | 3.6 | 6.6 | 3.8 | 7.2 | >200 | 0.625 to 2.5 | >200 | >200 | 2 to 8 | 1.25 | 50 | – | – |
| [Ir(triazolatoC6H5,biotin)(ppy)(terpy]PF6 [Compound 18] | – | – | – | 39.7 | > 50 | > 50 | > 50 | >200 | – | >200 | >200 | > 35 | 100 | >200 | 100 | Kd (streptavidin): 0.045 µM |
